Reference: article PMC7503500, “A Structure-Activity Relationship Comparison of Imidazodiazepines Binding at Kappa, Mu, and Delta Opioid Receptors and the GABAA Receptor” (Molecules, 2020)
pKi: −log10 of the molar value. Read-outs that look alike come from different tables or passages of the source.

Legend:
[1] = molecular target: δ opioid receptor (DOR) (Homo sapiens, UniProt P41143); test: Radioligand competition binding, DOR ([3H]-DADLE), HEK293 cell homogenates; conditions: for inhibition at 10 µM: read-out: DOR % (percent inhibition), at 10,000 nM; for DOR % (percent inhibition): at 10,000 nM
[2] = system: synaptic benzodiazepine-sensitive receptors (BZR), GABAAR; test: 3H-flunitrazepam binding, rat brain homogenate; conditions: for BZR % (percent inhibition): at 10,000 nM; for pKi: read-out: BZR (Ki)
[3] = molecular target: κ opioid receptor (KOR) (Homo sapiens, UniProt P41145); test: Radioligand competition binding, KOR ([3H]-U69593), HEK293 cell homogenates; conditions: for inhibition at 10 µM: read-out: KOR % (percent inhibition), at 10,000 nM; for inhibition at 10 µM / KOR % (percent inhibition): [3H]-U69593; for KOR % (percent inhibition): at 10,000 nM
[4] = molecular target: µ opioid receptor (MOR) (Homo sapiens, UniProt P35372); test: Radioligand competition binding, MOR ([3H]-DAMGO), HEK293 cell homogenates; conditions: [3H]-DAMGO; for inhibition at 10 µM: read-out: MOR % (percent inhibition), at 10,000 nM; for MOR % (percent inhibition): at 10,000 nM
[5] = read-out: KOR (Ki), [3H]-U69593, HEK293 homogenates

C#Cc1ccc2c(c1)C(c1ccccc1F)=N[C@@H](C)c1c(C(=O)OCC)ncn1-2 [SH-053-2′F-S-CH3]
inhibition at 10 µM [1]: 36%
BZR % (percent inhibition) [2]: 92%
pKi [2]: 6.95
pKi [3]: 7.05
inhibition at 10 µM [3]: 93%
inhibition at 10 µM [4]: 7%

C#Cc1ccc2c(c1)C(c1ccccc1F)=N[C@@H](C)c1c(-c3nc(CC)no3)ncn1-2 [GL-I-66]
DOR % (percent inhibition) [1]: 2%
BZR % (percent inhibition) [2]: 80%
pKi [2]: 6.18
KOR % (percent inhibition) [3]: 92%
pKi [3, 5]: 6.67
MOR % (percent inhibition) [4]: 28%

C#Cc1ccc2c(c1)C(c1ccccc1F)=N[C@H](C)c1c(-c3nc(C(C)C)no3)ncn1-2 [MP-IV-010]
DOR % (percent inhibition) [1]: 5%
BZR % (percent inhibition) [2]: 64%
pKi [2]: 6.09
KOR % (percent inhibition) [3]: 94%
pKi [3, 5]: 6.84
MOR % (percent inhibition) [4]: 33%

C#Cc1ccc2c(c1)C(c1ccccn1)=N[C@H](C)c1c(-c3nc(CC)no3)ncn1-2 [GL-II-54]
DOR % (percent inhibition) [1]: 0%
BZR % (percent inhibition) [2]: 66%
pKi [2]: 5.69
KOR % (percent inhibition) [3]: 80%
pKi [3, 5]: 6.30
MOR % (percent inhibition) [4]: 0%

C#Cc1ccc2c(c1)C(c1ccccc1F)=N[C@H](C)c1c(-c3nc(C)no3)ncn1-2 [MP-IV-004]
DOR % (percent inhibition) [1]: 10%
BZR % (percent inhibition) [2]: 63%
pKi [2]: 5.97
KOR % (percent inhibition) [3]: 86%
pKi [3, 5]: 6.35
MOR % (percent inhibition) [4]: 7%

C[C@H]1N=C(c2ccccc2F)c2cc(Br)ccc2-n2cnc(C(=O)N(C)C)c21 [GL-III-69]
inhibition at 10 µM [1]: 10%
BZR % (percent inhibition) [2]: 100%
pKi [2]: 6.35
pKi [3]: 6.29
inhibition at 10 µM [3]: 75%
inhibition at 10 µM [4]: 0%

C#Cc1ccc2c(c1)C(c1ccccc1F)=N[C@@H](C)c1c(C(=O)OC3CC3)ncn1-2 [GL-I-38]
inhibition at 10 µM [1]: 16%
BZR % (percent inhibition) [2]: 96%
pKi [2]: 6.90
pKi [3]: 7.17
inhibition at 10 µM [3]: 95%
inhibition at 10 µM [4]: 18%

C#Cc1ccc2c(c1)C(c1ccccc1F)=N[C@H](C)c1c(C(=O)NC(C)C)ncn1-2 [GL-III-66]
inhibition at 10 µM [1]: 0%
BZR % (percent inhibition) [2]: 88%
pKi [2]: 6.57
pKi [3]: 6.63
inhibition at 10 µM [3]: 63%
inhibition at 10 µM [4]: 0%

C#Cc1ccc2c(c1)C(c1ccccc1F)=N[C@@H](C)c1c(C(=O)NC(C)(C)C)ncn1-2 [GL-I-41]
inhibition at 10 µM [1]: 10%
BZR % (percent inhibition) [2]: 90%
pKi [2]: 6.85
pKi [3]: 7.41
inhibition at 10 µM [3]: 97%
inhibition at 10 µM [4]: 40%

C#Cc1ccc2c(c1)C(c1ccccc1F)=N[C@@H](C)c1c(C(=O)NC)ncn1-2 [MP-III-023]
inhibition at 10 µM [1]: 16%
BZR % (percent inhibition) [2]: 97%
pKi [2]: 7.43
pKi [3]: 6.92
inhibition at 10 µM [3]: 91%
inhibition at 10 µM [4]: 0%

C#Cc1ccc2c(c1)C(c1ccccc1F)=N[C@H](C)c1c(C(=O)NCC)ncn1-2 [GL-II-74]
inhibition at 10 µM [1]: 0%
BZR % (percent inhibition) [2]: 84%
pKi [2]: 7.17
pKi [3]: 6.71
inhibition at 10 µM [3]: 86%
inhibition at 10 µM [4]: 10%

C#Cc1ccc2c(c1)C(c1ccccc1F)=N[C@H](C)c1c(C(=O)NC3CC3)ncn1-2 [GL-II-75]
inhibition at 10 µM [1]: 3%
BZR % (percent inhibition) [2]: 85%
pKi [2]: 7.03
pKi [3]: 6.56
inhibition at 10 µM [3]: 81%
inhibition at 10 µM [4]: 0%

Cc1ncoc1-c1ncn2c1CN=C(c1ccccc1F)c1cc(Br)ccc1-2 [KRM-III-59]
inhibition at 10 µM [1]: 11%
BZR % (percent inhibition) [2]: 96%
pKi [2]: 7.70
pKi [3]: 6.39
inhibition at 10 µM [3]: 73%
inhibition at 10 µM [4]: 0%

C#Cc1ccc2c(c1)C(c1ccccc1F)=N[C@@H](C)c1c(C(N)=O)ncn1-2 [MP-III-018.B]
inhibition at 10 µM [1]: 10%
BZR % (percent inhibition) [2]: 97%
pKi [2]: 7.77
pKi [3]: 5.56
inhibition at 10 µM [3]: 51%
inhibition at 10 µM [4]: 2%

C#Cc1ccc2c(c1)C(c1ccccn1)=NCc1c(-c3ocnc3C)ncn1-2 [KRM-III-79]
inhibition at 10 µM [1]: 1%
BZR % (percent inhibition) [2]: 81%
pKi [2]: 6.51
inhibition at 10 µM [3]: 9%
inhibition at 10 µM [4]: 32%

C#Cc1ccc2c(c1)C(c1ccccn1)=N[C@H](C)c1c(C(=O)O)ncn1-2 [GL-II-30]
inhibition at 10 µM [1]: 4%
BZR % (percent inhibition) [2]: 65%
pKi [2]: 6.37
inhibition at 10 µM [3]: 0%
inhibition at 10 µM [4]: 20%

Fc1ccccc1C1=NCc2c(-c3cnco3)ncn2-c2ccc(Br)cc21 [SH-I-85]
inhibition at 10 µM [1]: 33%
BZR % (percent inhibition) [2]: 99%
pKi [2]: 7.96
pKi [3]: 6.79
inhibition at 10 µM [3]: 91%
inhibition at 10 µM [4]: 16%

CCOC(=O)c1ncn2c1[C@@H](C)N=C(c1ccccc1F)c1cc(C3CC3)ccc1-2 [GL-III-42]
DOR % (percent inhibition) [1]: 13%
BZR % (percent inhibition) [2]: 62%
pKi [2]: 6.14
inhibition at 10 µM [3]: 86%
MOR % (percent inhibition) [4]: 0%

C#Cc1ccc2c(c1)C(c1ccccn1)=NCc1c(-c3cnco3)ncn1-2 [KRM-III-67]
inhibition at 10 µM [1]: 3%
BZR % (percent inhibition) [2]: 71%
pKi [2]: 6.84
inhibition at 10 µM [3]: 48%
inhibition at 10 µM [4]: 30%

Cc1noc(-c2ncn3c2[C@@H](C)N=C(c2ccccn2)c2cc(C4CC4)ccc2-3)n1 [GL-III-64]
DOR % (percent inhibition) [1]: 14%
BZR % (percent inhibition) [2]: 92%
pKi [2]: 5.83
KOR % (percent inhibition) [3]: 60%
pKi [3, 5]: 5.69
MOR % (percent inhibition) [4]: 7%

C#Cc1ccc2c(c1)C(c1ccccc1F)=N[C@H](C)c1c(C(=O)N(C)C)ncn1-2 [GL-II-73]
inhibition at 10 µM [1]: 0%
BZR % (percent inhibition) [2]: 75%
pKi [2]: 6.30
pKi [3]: 5.92
inhibition at 10 µM [3]: 58%
inhibition at 10 µM [4]: 6%

C#Cc1ccc2c(c1)C(c1ccccc1F)=N[C@@H](C)c1c(C(=O)N(C)C)ncn1-2 [GL-I-54]
inhibition at 10 µM [1]: 11%
BZR % (percent inhibition) [2]: 94%
pKi [2]: 7.05
pKi [3]: 6.10
inhibition at 10 µM [3]: 78%
inhibition at 10 µM [4]: 18%

CCOC(=O)c1ncn2c1[C@@H](C)N=C(c1ccccc1F)c1cc(Br)ccc1-2 [SH-I-047]
inhibition at 10 µM [1]: 0%
BZR % (percent inhibition) [2]: 84%
pKi [2]: 6.62
inhibition at 10 µM [3]: 82%
MOR % (percent inhibition) [4]: 16%

C#Cc1ccc2c(c1)C(c1ccccc1F)=N[C@H](C)c1c(-c3cnco3)ncn1-2 [GL-III-73]
DOR % (percent inhibition) [1]: 4%
BZR % (percent inhibition) [2]: 65%
pKi [2]: 6.22
KOR % (percent inhibition) [3]: 74%
pKi [3, 5]: 6.35
MOR % (percent inhibition) [4]: 12%

Brc1ccc2c(c1)C(c1ccccc1)=NCc1c(-c3cnco3)ncn1-2 [KRM-II-73]
inhibition at 10 µM [1]: 32%
BZR % (percent inhibition) [2]: 97%
pKi [2]: 7.35
pKi [3]: 6.13
inhibition at 10 µM [3]: 83%
inhibition at 10 µM [4]: 11%

C#Cc1ccc2c(c1)C(c1ccccn1)=N[C@H](C)c1c(C(=O)OC)ncn1-2 [GL-II-32]
inhibition at 10 µM [1]: 0%
BZR % (percent inhibition) [2]: 63%
pKi [2]: 5.85
inhibition at 10 µM [3]: 35%
inhibition at 10 µM [4]: 32%

C#Cc1ccc2c(c1)C(c1ccccn1)=NCc1c(C(=O)OCC)ncn1-2 [Hz-166]
inhibition at 10 µM [1]: 49%
pKi [3]: 5.42
inhibition at 10 µM [3]: 60%
inhibition at 10 µM [4]: 6%
